Target: Human recombinant DHX9 protein (Homo sapiens (Human), UniProt Q08211)
Test: DHX9 ATPase assay (ADP-Glo)
Format: biochemical
Settings: for IC50: read-out: DHX9 Biochemical Inflection Point

Sequence of Human recombinant DHX9 protein (Q08211 whole entry): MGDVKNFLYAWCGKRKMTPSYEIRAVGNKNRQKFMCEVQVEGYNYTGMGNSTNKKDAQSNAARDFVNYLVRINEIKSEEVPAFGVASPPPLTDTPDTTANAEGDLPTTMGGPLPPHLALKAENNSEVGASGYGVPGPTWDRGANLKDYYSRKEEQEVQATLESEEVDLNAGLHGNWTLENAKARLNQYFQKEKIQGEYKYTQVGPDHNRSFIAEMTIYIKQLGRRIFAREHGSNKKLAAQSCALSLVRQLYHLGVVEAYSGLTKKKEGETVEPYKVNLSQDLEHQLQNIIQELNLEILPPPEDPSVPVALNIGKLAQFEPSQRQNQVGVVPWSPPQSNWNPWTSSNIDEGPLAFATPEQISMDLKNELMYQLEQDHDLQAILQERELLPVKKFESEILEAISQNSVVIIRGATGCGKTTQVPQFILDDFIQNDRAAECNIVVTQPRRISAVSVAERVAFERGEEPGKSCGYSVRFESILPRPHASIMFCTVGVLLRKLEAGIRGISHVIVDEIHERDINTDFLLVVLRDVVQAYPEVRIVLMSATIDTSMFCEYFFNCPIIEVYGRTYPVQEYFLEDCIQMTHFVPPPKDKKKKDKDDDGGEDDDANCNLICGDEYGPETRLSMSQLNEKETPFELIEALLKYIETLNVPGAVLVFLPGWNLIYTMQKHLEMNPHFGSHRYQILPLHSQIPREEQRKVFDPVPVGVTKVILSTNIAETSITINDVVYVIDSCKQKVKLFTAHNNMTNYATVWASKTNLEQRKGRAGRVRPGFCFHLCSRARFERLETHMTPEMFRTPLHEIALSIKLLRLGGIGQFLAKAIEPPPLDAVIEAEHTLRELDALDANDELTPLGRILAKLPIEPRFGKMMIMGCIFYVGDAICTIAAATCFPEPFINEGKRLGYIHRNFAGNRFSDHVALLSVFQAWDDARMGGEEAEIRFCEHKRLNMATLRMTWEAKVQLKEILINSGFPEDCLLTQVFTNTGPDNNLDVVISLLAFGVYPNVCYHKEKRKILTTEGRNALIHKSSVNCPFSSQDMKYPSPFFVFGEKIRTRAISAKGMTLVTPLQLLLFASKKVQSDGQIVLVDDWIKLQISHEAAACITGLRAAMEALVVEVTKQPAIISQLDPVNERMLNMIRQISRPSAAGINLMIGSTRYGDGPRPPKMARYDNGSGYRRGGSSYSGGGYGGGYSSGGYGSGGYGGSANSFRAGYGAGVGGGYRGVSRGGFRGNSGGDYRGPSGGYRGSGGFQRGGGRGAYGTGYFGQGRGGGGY

Structure (SMILES)	DHX9 Biochemical Max Inhibition	IC50
Cc1sc(C(=O)Nc2cc(Cl)cc(NS(C)(=O)=O)c2)cc1-c1ncc(N2CCC3(CC2)CC3)cc1F [Example 467]	99.3	155 nM
CS(=O)(=O)Nc1cc(Cl)cc(NC(=O)c2cc(-c3ccc(N4CC(F)(F)C4)cn3)cs2)c1 [Example 487]	64.3	25.3 nM
CS(=O)(=O)Nc1cc(Cl)cc(NC(=O)c2cc(-c3ccc(F)cn3)n(CCO)c2)c1 [Example 689]	85	3.6 nM
CS(=O)(=O)Nc1cc(Cl)cc(NC(=O)c2cc(-c3ncccc3Cc3ncccn3)cs2)c1 [Example 384]	75.5%	39 nM
CS(=O)(=O)Nc1cc(Br)cc(NC(=O)c2cccc(-n3cccn3)c2)c1 [Example 118]	55.8%	45.1 nM
Cn1cc(C(=O)Nc2cc(Cl)cc(NS(C)(=O)=O)c2)cc1-c1ccc(N2CC(C(F)(F)F)C2)cn1 [Example 497]	65.2	31.6 nM
Cc1ccc(-n2cc(C(=O)Nc3cc(Br)cc(NS(C)(=O)=O)c3)cn2)nc1 [Example 42]	48.7%	18.7 nM
CS(=O)(=O)Nc1cc(Cl)cc(NC(=O)c2cc3cc(Cl)ccc3s2)c1 [Example 298]	58.8%	4210 nM
Cc1sc(C(=O)Nc2cc(Cl)cc(NS(C)(=O)=O)c2)cc1-c1ncc(OC(F)F)cn1 [Example 345]	77.1%	33.6 nM
CS(=O)(=O)Nc1cc(Cl)cc(NC(=O)c2cc(-c3cccc(F)c3)cs2)c1 [Example 108]	59.8%	210 nM
COC(=O)[C@@H]1CCCN1c1csc(C(=O)Nc2cc(Cl)cc(NS(C)(=O)=O)c2)c1 [Example 242]	69.7%	105 nM
Cn1nc(C(=O)Nc2cc(Cl)cc(NS(C)(=O)=O)c2)cc1-c1ccccc1OCc1ccccc1 [Example 138, 5-(2-(benzyloxy)phenyl)-N-(3-chloro-5-(methylsulfonamido)phenyl)-1-methyl-1H-pyrazole-3-carboxamide]	42.6%	13500 nM
CCS(=O)(=O)Nc1cc(Cl)cc(NC(=O)c2cc(-c3ccccn3)c(C)s2)c1 [Example 28]	68.3%	4.2 nM
Cn1cc(C(=O)Nc2cc(Cl)cc(NS(C)(=O)=O)c2)cc1-c1ncc(OC2CN(C(=O)C3CC3)C2)cc1F [Example 697]	59.5	40.9 nM
Cc1sc(C(=O)Nc2cc(Cl)cc(NS(C)(=O)=O)c2)cc1-n1cc(F)cn1 [Example 439]	61.5	18.7 nM
Cc1cc(C(=O)Nc2cc(Cl)cc(NS(C)(=O)=O)c2)cn1-c1ccc(N2CCN(C(=O)N(C)C)CC2)cn1 [Example 284]	79.6%	4.1 nM
Cc1sc(C(=O)Nc2cc(Cl)cc(NS(C)(=O)=O)c2)cc1-c1ncc(N2CC3C(C2)C3(C)C)cc1F (stereo not shown) [Example 476]	61.1	312 nM
Cc1cc(C(=O)Nc2cc(Cl)cc(NS(C)(=O)=O)c2)cn1-c1ccc(N2CCOC(C)(C)C2)cn1 [Example 272]	71.6%	5.4 nM
Cc1cc(C(=O)Nc2cc(Cl)cc(NS(C)(=O)=O)c2)cn1-c1ccc(N2CCS(=O)(=O)CC2)cn1 [Example 285]	70.6%	5.4 nM
CS(=O)(=O)Nc1cc(Cl)cc(NC(=O)c2cc(Cl)n(-c3ncc(F)cn3)c2)c1 [Example 709]	60.9	100 nM
CS(=O)(=O)Nc1cc(Cl)cc(NC(=O)c2cnn(-c3ccccc3COc3cncc(F)c3)c2)c1 [Example 428]	68.9	70.8 nM
CCS(=O)(=O)Nc1cc(F)cc(NC(=O)c2cc(-c3ccccn3)cs2)c1 [Example 113]	65.9%	40 nM
CS(=O)(=O)Nc1cc(Cl)cc(NC(=O)c2cc(-c3ncccc3CC(=O)N3CCCC3)cs2)c1 [Example 383]	78.3%	10.1 nM
Cc1sc(C(=O)Nc2cc(Cl)cc(NS(C)(=O)=O)c2)cc1-c1ncc(OC(C)CO)cn1 (stereo not shown) [Example 677]	75.1	6.8 nM
Cc1sc(C(=O)Nc2cc(Cl)cc(NS(C)(=O)=O)c2)cc1-c1ncc(N2CC(F)(F)C2)cc1C#N [Example 715]	67.8	10.3 nM
CS(=O)(=O)Nc1cc(Cl)cc(NC(=O)c2cnn(-c3ncccc3Oc3ncccn3)c2)c1 [Example 196]	68.9%	78.6 nM
CCOc1cc(F)cnc1-c1cc(C(=O)Nc2cc(Cl)cc(NS(C)(=O)=O)c2)cn1C [Example 561]	69.7	15.9 nM
Cc1sc(C(=O)Nc2cc(Cl)cc(NS(C)(=O)=O)c2)cc1-c1ncc(OC2CNC2)cc1F [Example 637]	71.4	3.4 nM

Structure (SMILES)	DHX9 Biochemical Max Inhibition	IC50
CCS(=O)(=O)Nc1cc(Cl)cc(NC(=O)c2cc(-c3ncc(C)cc3F)n(C)c2)c1 [Example 548]	64.6	27.3 nM
CC(C)Oc1ccc(-c2csc(C(=O)Nc3cc(Cl)cc(NS(C)(=O)=O)c3)c2)nc1 [Example 459]	65.7	–
Cn1cc(C(=O)Nc2cc(Cl)cc(NS(C)(=O)=O)c2)cc1-c1ccc(N2CC(F)(F)C2)cn1 [Example 595, N-(3-chloro-5-methanesulfonamidophenyl)-5-[5-(3,3-difluoroazetidin-1-yl)pyridin-2-yl]-1-methyl-1H-pyrrole-3-carboxamide]	69.35	17.5 nM
CN1CCN(c2csc(C(=O)Nc3cc(Cl)cc(NS(C)(=O)=O)c3)c2)CC1=O [Example 661]	78.6	3.2 nM
Cc1sc(C(=O)Nc2cc(Cl)cc(NS(C)(=O)=O)c2)cc1-c1cn(Cc2ccccc2)nn1 [Example 235]	78.1%	35.8 nM
CS(=O)(=O)Nc1cc(Cl)cc(NC(=O)c2cc(-c3ncc(OC4CN(S(C)(=O)=O)C4)cn3)n(CC(F)(F)F)c2)c1 [Example 651]	59.6	70.6 nM
Cn1cc(C(=O)Nc2cc(Cl)cc(NS(C)(=O)=O)c2)cc1-c1ncc(N2CC(C(F)(F)F)C2)cn1 [Example 493]	67	24.8 nM
Cc1ccc2sc(C(=O)Nc3cc(Cl)cc(NS(C)(=O)=O)c3)cc2c1 [Example 331]	57.8%	194 nM
Cc1cc(C(=O)Nc2cc(Cl)cc(NS(C)(=O)=O)c2)cn1-c1ncccn1 [Example 59]	77.5%	12.7 nM
Cc1cc(C(=O)Nc2cc(Cl)cc(NS(C)(=O)=O)c2)cn1-c1ncc(N2CCCC2=O)cn1 [Example 401]	70.3	10.6 nM
CS(=O)(=O)Nc1cc(F)cc(NC(=O)c2cc(-c3ccccc3)cs2)c1 [Example 73]	63%	189 nM
CS(=O)(=O)Nc1cc(Cl)cc(NC(=O)c2ccc3nccn3c2)c1 [Example 134]	40%	808 nM
Cc1cc(C(=O)Nc2cc(Cl)cc(NS(C)(=O)=O)c2)cn1-c1ccc(N(C)C2CCOC2)cn1 (stereo not shown) [Example 269]	76.9%	4.4 nM
Cc1sc(C(=O)Nc2cc(Cl)cc(NS(C)(=O)=O)c2)cc1-c1ncc(C(C)(O)C2CN(C)C2)cc1F (stereo not shown) [Example 653]	75.7	2 nM
CS(=O)(=O)Nc1cc(Cl)cc(NC(=O)c2cc3c(F)c(F)ccc3s2)c1 [Example 324]	63.1%	164 nM
Cn1cc(C(=O)Nc2cc(Cl)cc(NS(C)(=O)=O)c2)cc1-c1ncc(N2CC[Si](C)(C)CC2)cc1F [Example 470]	93.8	125 nM
Cc1cc(F)cc(C#N)c1-c1cc(C(=O)Nc2cc(Cl)cc(NS(C)(=O)=O)c2)cn1C [Example 659]	50.7	68.8 nM
CC(=O)N1CCN(c2cnc(-n3cc(C(=O)Nc4cc(Br)cc(NS(C)(=O)=O)c4)cn3)c(C)c2)CC1 [Example 87]	55.7%	26.1 nM
CS(=O)(=O)Nc1cc(Cl)cc(NC(=O)c2cc(C(=O)Nc3ccccc3)cs2)c1 [Example 166, N2-(3-chloro-5-(methylsulfonamido)phenyl)-N4-phenylthiophene-2,4-dicarboxamide]	64%	28.5 nM
CN1CC(Oc2cnc(-c3cc(C(=O)Nc4cc(Cl)cc(NS(C)(=O)=O)c4)cn3CC(F)F)nc2)C1 [Example 679]	70.2	12.5 nM
CN(C)S(=O)(=O)c1ccc(-n2cc(C(=O)Nc3cc(Cl)cc(NS(C)(=O)=O)c3)cn2)nc1 [Example 200]	57.7%	84.6 nM
CCS(=O)(=O)Nc1cc(Cl)cc(NC(=O)c2cc(-c3ncc(F)cc3OC)c(C)s2)c1 [Example 354]	75.5%	13.4 nM
CS(=O)(=O)Nc1cc(Cl)cc(NC(=O)c2cnn(-c3ncc(N4CC5(COC5)C4)cc3O)c2)c1 [Example 691]	68.5	35.9 nM
Cc1sc(C(=O)Nc2cc(Cl)cc(NS(C)(=O)=O)c2)cc1-c1ncc(N2CCC(C(F)(F)F)CC2)cc1F [Example 481]	62.1	204 nM
COc1ccc(F)c(-c2cc(C(=O)Nc3cc(Cl)cc(NS(C)(=O)=O)c3)cn2C)n1 [Example 703]	53.6	44.4 nM
Cn1cc(C(=O)Nc2cc(Cl)cc(NS(C)(=O)=O)c2)cc1-c1ccc(N2CCC3(C2)CC3(F)F)cn1 (stereo not shown) [Example 495]	61.8	85.4 nM
Cn1cc(C(=O)Nc2cc(Cl)cc(NS(C)(=O)=O)c2)cc1-c1ncc(N2CCC3(CC2)CC3(F)F)cc1F [Example 518]	56.7	153 nM
